According to ChEMBL document CHEMBL4715724, “Novel 5-substituted-2-anilinoquinolines with 3-(morpholino or 4-methylpiperazin-1-yl)propoxy moiety as broad spectrum antiproliferative agents: Synthesis, cell based assays and kinase screening” (Bioorg Med Chem Lett, 2016):
Blank lines part the entries; values can stand above or below the compound they belong to.

Tests used:
Format in all cases: functional
[1] = tested on: Panel leukemia (Carcinoma cell lines); assay: cells; settings: Homo sapiens, time 48 hrs
Description: Growth inhibition of human Panel leukemia (Carcinoma cell lines) incubated for 48 hrs by sulforhodamine B assay

K562 = assay: cells; settings: Homo sapiens, time 48 hrs
Description: Growth inhibition of human K562 cells incubated for 48 hrs by sulforhodamine B assay

A549 = assay: cells; settings: Homo sapiens, time 48 hrs
Description: Growth inhibition of human A549/ATCC cells incubated for 48 hrs by sulforhodamine B assay

HOP-62 = assay: cells; settings: Homo sapiens, time 48 hrs
Description: Growth inhibition of human HOP-62 cells incubated for 48 hrs by sulforhodamine B assay

HOP-92 = assay: cells; settings: Homo sapiens, time 48 hrs
Description: Growth inhibition of human HOP-92 cells incubated for 48 hrs by sulforhodamine B assay

NCI-H226 = assay: cells; settings: Homo sapiens, time 48 hrs
Description: Growth inhibition of human NCI-H226 cells incubated for 48 hrs by sulforhodamine B assay

NCI-H23 = assay: cells; settings: Homo sapiens, time 48 hrs
Description: Growth inhibition of human NCI-H23 cells incubated for 48 hrs by sulforhodamine B assay

NCI-H322M = assay: cells; settings: Homo sapiens, time 48 hrs
Description: Growth inhibition of human NCI-H322M cells incubated for 48 hrs by sulforhodamine B assay

NCI-H460 = assay: cells; settings: Homo sapiens, time 48 hrs
Description: Growth inhibition of human NCI-H460 cells incubated for 48 hrs by sulforhodamine B assay

NCI-H522 = assay: cells; settings: Homo sapiens, time 48 hrs
Description: Growth inhibition of human NCI-H522 cells incubated for 48 hrs by sulforhodamine B assay

HCT-116 = assay: cells; settings: Homo sapiens, time 48 hrs
Description: Growth inhibition of human HCT-116 cells incubated for 48 hrs by sulforhodamine B assay

HCT-15 = assay: cells; settings: Homo sapiens, time 48 hrs
Description: Growth inhibition of human HCT-15 cells incubated for 48 hrs by sulforhodamine B assay

HT-29 = assay: cells; settings: Homo sapiens, time 48 hrs
Description: Growth inhibition of human HT-29 cells incubated for 48 hrs by sulforhodamine B assay

KM12 = assay: cells; settings: Homo sapiens, time 48 hrs
Description: Growth inhibition of human KM12 cells incubated for 48 hrs by sulforhodamine B assay

SF-295 = assay: cells; settings: Homo sapiens, time 48 hrs
Description: Growth inhibition of human SF-295 cells incubated for 48 hrs by sulforhodamine B assay

U-251 = assay: cells; settings: Homo sapiens, time 48 hrs
Description: Growth inhibition of human U-251 cells incubated for 48 hrs by sulforhodamine B assay

LOX IMVI = assay: cells; settings: Homo sapiens, time 48 hrs
Description: Growth inhibition of human LOX IMVI cells incubated for 48 hrs by sulforhodamine B assay

SK-MEL-28 = assay: cells; settings: Homo sapiens, time 48 hrs
Description: Growth inhibition of human SK-MEL-28 cells incubated for 48 hrs by sulforhodamine B assay

UACC-257 = assay: cells; settings: Homo sapiens, time 48 hrs
Description: Growth inhibition of human UACC-257 cells incubated for 48 hrs by sulforhodamine B assay

UACC-62 = assay: cells; settings: Homo sapiens, time 48 hrs
Description: Growth inhibition of human UACC-62 cells incubated for 48 hrs by sulforhodamine B assay

IGROV-1 = assay: cells; settings: Homo sapiens, time 48 hrs
Description: Growth inhibition of human IGROV-1 cells incubated for 48 hrs by sulforhodamine B assay

OVCAR-3 = assay: cells; settings: Homo sapiens, time 48 hrs
Description: Growth inhibition of human OVCAR-3 cells incubated for 48 hrs by sulforhodamine B assay

OVCAR-4 = assay: cells; settings: Homo sapiens, time 48 hrs
Description: Growth inhibition of human OVCAR-4 cells incubated for 48 hrs by sulforhodamine B assay

OVCAR-8 = assay: cells; settings: Homo sapiens, time 48 hrs
Description: Growth inhibition of human OVCAR-8 cells incubated for 48 hrs by sulforhodamine B assay

A498 = assay: cells; settings: Homo sapiens, time 48 hrs
Description: Growth inhibition of human A498 cells incubated for 48 hrs by sulforhodamine B assay

RXF 393 = assay: cells; settings: Homo sapiens, time 48 hrs
Description: Growth inhibition of human RXF 393 cells incubated for 48 hrs by sulforhodamine B assay

TK-10 = assay: cells; settings: Homo sapiens, time 48 hrs
Description: Growth inhibition of human TK-10 cells incubated for 48 hrs by sulforhodamine B assay

UO-31 = assay: cells; settings: Homo sapiens, time 48 hrs
Description: Growth inhibition of human UO-31 cells incubated for 48 hrs by sulforhodamine B assay

PC-3 = assay: cells; settings: Homo sapiens, time 48 hrs
Description: Growth inhibition of human PC-3 cells incubated for 48 hrs by sulforhodamine B assay

MCF7 = assay: cells; settings: Homo sapiens, time 48 hrs
Description: Growth inhibition of human MCF7 cells incubated for 48 hrs by sulforhodamine B assay

MDA-MB-231 = assay: cells; settings: Homo sapiens, time 48 hrs
Description: Growth inhibition of human MDA-MB-231/ATCC cells incubated for 48 hrs by sulforhodamine B assay

Hs-578T = assay: cells; settings: Homo sapiens, time 48 hrs
Description: Growth inhibition of human Hs-578T cells incubated for 48 hrs by sulforhodamine B assay

MDA-MB-468 = assay: cells; settings: Homo sapiens, time 48 hrs
Description: Growth inhibition of human MDA-MB-468 cells incubated for 48 hrs by sulforhodamine B assay

cells = settings: Homo sapiens, Non-small cell lung cancer cell line; time 48 hrs
Description: Growth inhibition of human Non-small cell lung cancer cell line incubated for 48 hrs by sulforhodamine B assay

[2] = tested on: Panel colon (Carcinoma cell lines); assay: cells; settings: Homo sapiens, time 48 hrs
Description: Growth inhibition of human Panel colon (Carcinoma cell lines) incubated for 48 hrs by sulforhodamine B assay

[3] = tested on: Panel CNS (Carcinoma cell lines); assay: cells; settings: Homo sapiens, time 48 hrs
Description: Growth inhibition of human Panel CNS (Carcinoma cell lines) incubated for 48 hrs by sulforhodamine B assay

[4] = tested on: Panel melanoma (Carcinoma cell lines); assay: cells; settings: Homo sapiens, time 48 hrs
Description: Growth inhibition of human Panel melanoma (Carcinoma cell lines) incubated for 48 hrs by sulforhodamine B assay

[5] = tested on: Panel ovarian (Carcinoma cell lines); assay: cells; settings: Homo sapiens, time 48 hrs
Description: Growth inhibition of human Panel ovarian (Carcinoma cell lines) incubated for 48 hrs by sulforhodamine B assay

[6] = tested on: Panel renal (Carcinoma cell lines); assay: cells; settings: Homo sapiens, time 48 hrs
Description: Growth inhibition of human Panel renal (Carcinoma cell lines) incubated for 48 hrs by sulforhodamine B assay

[7] = tested on: Panel prostate (Carcinoma cell lines); assay: cells; settings: Homo sapiens, time 48 hrs
Description: Growth inhibition of human Panel prostate (Carcinoma cell lines) incubated for 48 hrs by sulforhodamine B assay

[8] = tested on: Panel breast (Carcinoma cell lines); assay: cells; settings: Homo sapiens, time 48 hrs
Description: Growth inhibition of human Panel breast (Carcinoma cell lines) incubated for 48 hrs by sulforhodamine B assay

[9] = tested on: Panel NCI-60 (60 carcinoma cell lines); assay: cells; settings: Homo sapiens, time 48 hrs
Description: Growth inhibition of human Panel NCI-60 (60 carcinoma cell lines) incubated for 48 hrs by sulforhodamine B assay

CCRF-CEM = assay: cells; settings: Homo sapiens, time 48 hrs
Description: Growth inhibition of human CCRF-CEM cells incubated for 48 hrs by sulforhodamine B assay

SR = assay: cells; settings: Homo sapiens, time 48 hrs
Description: Growth inhibition of human SR cells incubated for 48 hrs by sulforhodamine B assay

SNB-75 = assay: cells; settings: Homo sapiens, time 48 hrs
Description: Growth inhibition of human SNB-75 cells incubated for 48 hrs by sulforhodamine B assay

M14 = assay: Growth inhibition of human M14 cells assessed as growth percentage at 10 uM measured after 48 hrs by sulforhodamine B assay relative to control; settings: read-out: Activity
[10] = read-out: LC50 (the source's name)

GI50 [1]: 3540 nM
SMILES: COc1cc2ncnc(Nc3ccc(F)c(Cl)c3)c2cc1OCCCN1CCOCC1 [GEFITINIB]

SMILES: CN1CCN(CCCOc2cccc3nc(Nc4ccc(Cl)c(F)c4)ccc23)CC1
GI50 (K562): 1470 nM
GI50 (A549): 1960 nM
GI50 (HOP-62): 1450 nM
GI50 (HOP-92): 1330 nM
GI50 (NCI-H226): 2050 nM
GI50 (NCI-H23): 1750 nM
GI50 (NCI-H322M): 1700 nM
GI50 (NCI-H460): 1910 nM
GI50 (NCI-H522): 1750 nM
GI50 (HCT-116): 1560 nM
GI50 (HCT-15): 1400 nM
GI50 (HT-29): 1410 nM
GI50 (KM12): 1770 nM
GI50 (SF-295): 1790 nM
GI50 (U-251): 1810 nM
GI50 (LOX IMVI): 1640 nM
GI50 (SK-MEL-28): 1720 nM
GI50 (UACC-257): 2040 nM
GI50 (UACC-62): 2050 nM
GI50 (IGROV-1): 1950 nM
GI50 (OVCAR-3): 1700 nM
GI50 (OVCAR-4): 3130 nM
GI50 (OVCAR-8): 2020 nM
GI50 (A498): 2390 nM
GI50 (RXF 393): 1960 nM
GI50 (TK-10): 1810 nM
GI50 (UO-31): 1570 nM
GI50 (PC-3): 1760 nM
GI50 (MCF7): 1310 nM
GI50 (MDA-MB-231): 1680 nM
GI50 (Hs-578T): 2120 nM
GI50 (MDA-MB-468): 1720 nM
GI50 [1]: 1900 nM
LC50 (50% lethal concentration) [1]: 53900 nM
TGI [1]: 4280 nM
GI50 (cells): 1750 nM
LC50 (50% lethal concentration) (cells): 9980 nM
TGI (cells): 3880 nM
GI50 [2]: 1620 nM
TGI [2]: 3170 nM
CC50 [2, 10]: 6210 nM
GI50 [3]: 1740 nM
TGI [3]: 3350 nM
CC50 [3, 10]: 6460 nM
GI50 [4]: 1820 nM
LC50 [4]: 6770 nM
TGI [4]: 3500 nM
GI50 [5]: 1990 nM
LC50 [5]: 11300 nM
TGI [5]: 4870 nM
GI50 [6]: 2220 nM
LC50 (lethal concentration 50%) [6]: 19800 nM
TGI [6]: 6210 nM
GI50 [7]: 1760 nM
LC50 (concentration killing 50% of cells) [7]: 6210 nM
TGI [7]: 2800 nM
GI50 [8]: 1840 nM
TGI [8]: 4500 nM
CC50 [8, 10]: 13200 nM
GI50 [9]: 1820 nM
TGI [9]: 3890 nM
CC50 [9, 10]: 9120 nM

GI50 (CCRF-CEM): 2480 nM
GI50 (K562): 1910 nM
GI50 (A549): 2960 nM
GI50 (NCI-H226): 2760 nM
GI50 (NCI-H23): 2210 nM
GI50 (NCI-H322M): 2530 nM
GI50 (NCI-H460): 3070 nM
GI50 (NCI-H522): 1720 nM
GI50 (HCT-116): 2760 nM
GI50 (HCT-15): 1400 nM
GI50 (HT-29): 1530 nM
GI50 (U-251): 1850 nM
GI50 (SK-MEL-28): 1820 nM
GI50 (OVCAR-3): 3080 nM
GI50 (OVCAR-4): 3750 nM
GI50 (OVCAR-8): 4030 nM
GI50 (PC-3): 2080 nM
GI50 (MCF7): 1680 nM
GI50 (MDA-MB-231): 1530 nM
GI50 (MDA-MB-468): 2080 nM
GI50 [1]: 2180 nM
GI50 [2]: 1970 nM
GI50 [3]: 2160 nM
GI50 [4]: 2010 nM
GI50 [5]: 3070 nM
GI50 [6]: 2420 nM
GI50 [7]: 2850 nM
GI50 [8]: 2480 nM
SMILES: Fc1cc(Nc2ccc3c(OCCCN4CCOCC4)cccc3n2)ccc1Cl
GI50 (SR): 1690 nM
GI50 (HOP-62): 1710 nM
GI50 (HOP-92): 2400 nM
GI50 (KM12): 2300 nM
GI50 (SF-295): 1970 nM
GI50 (SNB-75): 1860 nM
GI50 (LOX IMVI): 1710 nM
GI50 (UACC-257): 2180 nM
GI50 (UACC-62): 2320 nM
GI50 (IGROV-1): 3190 nM
GI50 (A498): 2420 nM
GI50 (RXF 393): 2160 nM
GI50 (TK-10): 2010 nM
GI50 (UO-31): 1650 nM
GI50 (Hs-578T): 2190 nM
GI50 (cells): 2410 nM
GI50 [9]: 2240 nM

SMILES: CC(C)c1ccc(Nc2ccc3c(OCCCN4CCOCC4)cccc3n2)cc1
growth at 10 µM (M14): 59.8%
